Laboratory results published in the OPERA property sets (Mansouri et al. 2018).

Settings: for log10 BCF / log10 biotransformation half-life (days): fish

SMILES | boiling point [°C] | melting point [°C] | further results
CCNc1nc(NCC)nc(OC)n1 | – | – | log10 Koc (L/kg): 2.34; log10 vapour pressure (mmHg): -5.62
CCCCCCCF | 118 | -73 | log10 vapour pressure (mmHg): 1.26
CC(C)=C(C)C(C)C | 116 | -113 | log10 vapour pressure (mmHg): 1.35
NCCCc1ccccc1 | 221 | – | –
CCOS(C)(=O)=O | 214 | – | log10 vapour pressure (mmHg): -0.686
C[N+](C)(C)c1ccccc1.[I-] | – | 224 | –
CCCC(C)(C)C(C)=O | 149 | – | –
CCCCCCCCCCCc1ccccc1 | 316 | -5 | log10 vapour pressure (mmHg): -3.62
Cc1nnc2n1-c1sc(Br)cc1C(c1ccccc1Cl)=NC2 | – | 213 | –
CC(C)(C)c1ccc(OC(=O)c2ccccc2O)cc1 | – | 62 | –
CN1C2CCC1CC(=O)C2 | 227 | 43 | –
CCCCCC(=O)OC(=O)CCCCC | – | -41 | –
Clc1cc(Cl)c2oc3c(Cl)c(Cl)cc(Cl)c3c2c1 | – | 204 | –
CCCCCC#CCC(=O)O | – | 17 | –
C[Si](C)(Cl)c1ccccc1 | – | – | log10 vapour pressure (mmHg): -0.14
CCCCCC=CC=CC(=O)O | – | 49.5 | –
Clc1cc2oc3c(Cl)c(Cl)c(Cl)c(Cl)c3c2c(Cl)c1Cl | – | – | log10 Koa: 11.4
COC(C)(C)CCCC(C)C/C=C/C(C)=C/C(=O)OC(C)C (configuration not stated) | – | – | log10 vapour pressure (mmHg): -4.63
COc1cccc(NC(=O)N(C)C)c1 | – | – | log10 Koc (L/kg): 1.72
CCCCCCCCCC(=O)CCCCCCCCC | – | 65.5 | –
Cl[Si](Cl)(Cl)c1ccccc1 | 201 | – | log10 vapour pressure (mmHg): -0.371
C=CCCCCC=C | 116 | – | –
CCCCNC(=O)NS(=O)(=O)c1ccc(N)cc1 | – | 144 | –
O=C(O)CCN1C(=O)C=CC1=O | – | 104 | –
Clc1cccc(-c2cc(Cl)c(Cl)c(Cl)c2Cl)c1Cl | – | – | log10 Henry constant (atm·m³/mol): -4.54
CC=C(C)CCl | 110 | – | –

SMILES | boiling point [°C] | melting point [°C] | further results
CCC(CC)C(CC)CC | 164 | – | –
Cc1ccc(N(SC(F)(Cl)Cl)S(=O)(=O)N(C)C)cc1 | – | 96 | log10 vapour pressure (mmHg): -5.82
CCOc1ccc(C(=O)OCCN(CC)CC)cc1 | – | 173 | –
O=C1CCCCCCN1 | – | 36.5 | –
O=C(O)CCCCCCCCCCCCC1C=CCC1 (configuration not stated) | – | 68.5 | –
c1ccc(C2(c3ccccc3)CC2C2=NCCN2)cc1 (configuration not stated) | – | 104 | –
C=CCC(C(=O)OCC)C(=O)OCC | 222 | – | –
CC(=O)c1ccc(C)nc1 | – | 17.6 | –
Cc1cc(N(C)C)nc(Cl)n1 | – | 87 | –
O=C([O-])C(F)(F)C(F)F.[Na+] | – | – | log10 vapour pressure (mmHg): -3.52
O=P(O)(O)CCCl | – | 74.2 | log10 Koc (L/kg): 0; log10 vapour pressure (mmHg): -7.01
CCCC(C)C(=O)O (configuration not stated) | 196 | – | –
C=C[C@H](C)O | 96.5 | – | –
C1CCCNCCC1 | – | 29 | –
CC1(C)CO1 | 52 | – | –
O=C(O)c1ccc(C(=O)c2ccccc2)cc1 | – | 199 | –
CCCCCOC | 99 | – | –
CC1COC(Cn2cncn2)(c2ccc(Oc3ccc(Cl)cc3)cc2Cl)O1 (configuration not stated) | – | 76 | log10 vapour pressure (mmHg): -9.6
Nc1ccc2ccc3cccc4ccc1c2c34 | – | 116 | –
C/C=C(\C)C(=O)OCC | 156 | – | –
Cc1cncnc1 | 153 | 30.5 | –
N#Cc1ccc(N)c2ccccc12 | – | 176 | –
CCOC(=O)C1N=C(c2ccccc2F)c2cc(Cl)ccc2NC1=O (configuration not stated) | – | 194 | –
CC(C)(C)c1cc(C(C)(C)c2ccc(O)c(C(C)(C)C)c2)ccc1O | – | 114 | –
O=C(O)c1cccc(Cl)n1 | – | – | log10 Koc (L/kg): 1.37; ready biodegradability: not readily biodegradable
FC(F)(F)C(F)(F)C(F)(F)C(F)(F)OC(F)(F)C(F)(F)C(F)(F)C(F)(F)F | 102 | -100 | –

SMILES | boiling point [°C] | melting point [°C] | further results
Cc1ccc2cccc(O)c2n1 | 267 | 73.8 | –
OCCCCl | 165 | – | –
COc1ccc2c(c1O)-c1cccc3c1C(C2)N(C)CC3 (configuration not stated) | – | 124 | –
C1CC2CCCC2C1 (configuration not stated) | 139 | – | –
BrCCOc1ccccc1 | – | 39 | –
CCc1cccc2c3c([nH]c12)C(CC)(CC(=O)O)OCC3 (configuration not stated) | – | 146 | –
c1ccc2c(c1)-c1cccc3cccc-2c13 | 384 | – | log10 Henry constant (atm·m³/mol): -5.05; log10 Koa: 8.88; log10 Koc (L/kg): 4.8; log10 biodegradation half-life (days): 2.17; log10 vapour pressure (mmHg): -5.04; ready biodegradability: not readily biodegradable; log10 BCF: 3.56; log10 biotransformation half-life (days): -0.02
O=c1oc2ccccc2c(O)c1Cc1c(O)c2ccccc2oc1=O | – | 290 | –
CC(=O)CC(C)(C)O | 168 | -44 | log10 vapour pressure (mmHg): 0.233; ready biodegradability: readily biodegradable
CC(C)CCCCCOC(=O)c1ccccc1C(=O)OCCCCCC(C)C | – | – | log10 Koc (L/kg): 3.21; log10 vapour pressure (mmHg): -5.26
O=[N+]([O-])c1ccc(N=Nc2ccc(N(CCO)CCO)cc2Cl)cc1 | – | 190 | –
Cc1ccccc1NC=O | 288 | 62 | –
COc1cccc(OC)c1O | 261 | 56.5 | log10 Henry constant (atm·m³/mol): -6.64
CCCCc1cccc(O)c1 | 248 | – | –
COc1cc2ccc(=O)oc2c(O)c1O | – | 231 | –
CCCCCc1ccc(O)cc1O | – | 72.5 | –
Clc1ccc(C(Cl)Cl)c(Cl)c1Cl | 278 | 84 | –
CCC(=O)Oc1ccc(/C(CC)=C(\CC)c2ccc(OC(=O)CC)cc2)cc1 | – | 104 | –
Cc1ccc(-c2ccc(C)cc2C)c(C)c1 | 287 | 41 | –
CCCC(c1ccc(O)cc1)c1ccc(O)cc1 | – | 137 | –
CCOC(=O)c1ccc2ccccc2c1 | 308 | 32 | –
COc1ccccc1[N+](=O)[O-] | 277 | 10.5 | log10 vapour pressure (mmHg): -2.44; ready biodegradability: not readily biodegradable; log10 BCF: 0.7; log10 biotransformation half-life (days): -1.04
O=[N+]([O-])c1ccc(C=NO)cc1 | – | 128 | –
COc1ccc(O)c(C=O)c1 | 248 | 4 | –
CN1CC[C@]23c4c5ccc(OCCN6CCOCC6)c4O[C@H]2[C@@H](O)C=C[C@H]3[C@H]1C5 | – | 91 | –
COC(=O)C(F)(F)C(F)(F)C(F)(F)F | 80 | -86 | –

SMILES | boiling point [°C] | melting point [°C] | further results
Clc1cc2c(cc1Cl)Oc1cc(Cl)c(Cl)cc1O2 | – | 305 | log10 Koa: 10.1; log10 Koc (L/kg): 6.5; log10 vapour pressure (mmHg): -8.82; ready biodegradability: not readily biodegradable; log10 BCF: 4.99; log10 biotransformation half-life (days): 1.78
c1ccc2c(c1)OCO2 | 172 | – | –
CCCCCCC(=O)CCCCC | – | 10 | –
CCCCCOc1ccccc1 | 200 | – | –
CCCCCCCCCCCCCCCCOP(=O)(O)OCCCCCCCCCCCCCCCC | – | 74.5 | –
c1ccc(-c2ccccc2-c2ccccc2-c2ccccc2)cc1 | 420 | 118 | –
CCCC(C)C(C)C (configuration not stated) | 116 | – | log10 biodegradation half-life (days): 1.42; log10 vapour pressure (mmHg): 1.37
Oc1ccc2ccccc2c1/N=N/c1ccccc1 | – | 134 | log10 Koc (L/kg): 3.58
CN1CCC(=C2c3ccccc3C=Cc3ccccc32)CC1 | – | 113 | –
C[C@@H]1CCCCN1 | 120 | – | log10 vapour pressure (mmHg): 1.29
N#CCC(N)=O | – | 122 | –
CCCCCCCCOC=O | 199 | -39.1 | –
CCCC(=O)c1ccc(C)cc1 | 252 | 12 | –
COC(=O)/C=C(\C)OP(=O)(OC)OC | – | 21 | log10 vapour pressure (mmHg): -3.91
C=CCSC#N | 161 | – | –
CCc1ccc2c(c1)C(=O)c1ccccc1C2=O | – | 110 | ready biodegradability: not readily biodegradable; log10 BCF: 0.98
C[Si]1(C)O[Si](C)(C)O[Si](C)(C)O[Si](C)(C)O[Si](C)(C)O[Si](C)(C)O[Si](C)(C)O[Si](C)(C)O1 | 290 | 31.5 | log10 vapour pressure (mmHg): -2.54
CCCCCCCNCCCCCCC | 271 | 31.5 | –
O=C1C(=O)c2ccccc2C(Cl)=C1Cl | – | 184 | –
Cn1ccc(=O)[nH]c1=O | – | 237 | log10 vapour pressure (mmHg): -3.29
CNC(=O)Oc1cc(C)c(C)c(C)c1 | – | 109 | log10 Koc (L/kg): 2.6; log10 vapour pressure (mmHg): -4.29
CCCCCCOC(=O)c1ccccc1C(=O)OCCCCCC | – | -58 | log10 Koc (L/kg): 4.72; log10 vapour pressure (mmHg): -4.85
CCCN(CCC)c1c([N+](=O)[O-])cc(C(F)(F)F)cc1[N+](=O)[O-] | – | 49 | log10 Henry constant (atm·m³/mol): -3.99; log10 Koc (L/kg): 4.2; log10 vapour pressure (mmHg): -4.34; ready biodegradability: not readily biodegradable; log10 BCF: 3.36; log10 biotransformation half-life (days): 0.62
Cc1ccc2c(c1)CC=C2 | 207 | – | –
CC1(C)CCCNC1 | 137 | – | –
CCCCC(C#N)(Cn1ccnc1)c1ccccc1 (configuration not stated) | – | 161 | –

SMILES | boiling point [°C] | melting point [°C] | further results
O=C1OC(c2ccccc2)(c2ccccc2)c2ccccc21 | – | 120 | –
CSCSC | 148 | – | –
O=Cc1cccc(F)c1 | 173 | – | –
CCOC(=O)C(CC)(CC)C(C)=O | 216 | – | –
CCC(C)C1(CC)C(=O)NC(=O)NC1=O (configuration not stated) | – | 166 | –
OCC(Br)CBr (configuration not stated) | – | – | log10 vapour pressure (mmHg): -1.04
O=[N+]([O-])c1c(Cl)ncnc1Cl | – | 102 | –
CC(C)OC(=O)C(C)O (configuration not stated) | 167 | – | –
CC(=O)Nc1cccc(C)c1 | 303 | 65.5 | log10 Koc (L/kg): 1.45
COC(=O)[C@@H]1CCCN1C(=O)COC(=O)c1ccccc1 | – | 72.5 | –
C=C1C=CC(C(C)C)CC1 (configuration not stated) | 172 | – | log10 vapour pressure (mmHg): 0.2
CCS(=O)CC | – | 14 | –
CCCCCCCCCCCCCC(=O)OCC | 295 | 12.3 | –
CC(CN1c2ccccc2Sc2ccccc21)N(C)C.Cl (configuration not stated) | – | 228 | –
C[C@H]1O[C@H](O[C@H]2CC[C@H](n3ccc(NC(=O)c4ccc(NC(=O)[C@@](C)(N)CO)cc4)nc3=O)O[C@@H]2C)[C@H](O)[C@@H](O)[C@@H]1N(C)C | – | 167 | –
O=C(O)c1cccc(F)c1F | – | 164 | –
Cc1cccc(N)c1 | 203 | -31.2 | log10 Henry constant (atm·m³/mol): -5.78; log10 Koc (L/kg): 1.53; log10 vapour pressure (mmHg): -0.519; ready biodegradability: not readily biodegradable
Cc1ccc([N+](=O)[O-])cc1S(=O)(=O)O | – | – | ready biodegradability: not readily biodegradable
COP(=S)(OC)Oc1ccc(S(C)(=O)=O)c(C)c1 | – | – | log10 BCF: 0.51; log10 biotransformation half-life (days): -0.03
Nc1cccc2cc(O)ccc12 | – | 191 | –
O=[N+]([O-])c1cc(Cl)c(Cl)cc1Cl | 288 | 57.5 | log10 BCF: 1.84; log10 biotransformation half-life (days): -0.64
CCc1cc2c(cc1C(C)=O)C(C)(C)CCC2(C)C | – | 46.5 | –
